Legend:
[1] = Displacement of [3H]leucine from Large neutral amino acids transporter system L in CHO cells; assay type: cell-based, Cricetulus griseus
[2] = Displacement of [3H]gabapentin from alpha2-delta subunit of voltage gated calcium channel in pig brain membrane; assay type: cell membranes, Sus scrofa
Rattus norvegicus [3] = assay: Reduction in renal clearance in Wistar rat at 3 mg/kg, iv after 5 mins in presence of probenecid relative to control; assay type: ADME, organism-based; design: dose 3 mg/kg, route intravenous; details: in vivo
Mus musculus [4] = assay: Anticonvulsant activity in DBA/2 mouse assessed as protection from audiogenically-induced tonic seizures at 30 mg/kg, po after 1 hr; assay type: functional
[5] = Clearance in rat; assay type: ADME, organism-based; details: in vivo
[6] = Unbound fraction in rat; assay type: ADME, organism-based; details: in vivo
[7] = Bioavailability in rat; assay type: ADME, organism-based; details: in vivo
Mus musculus [8] = assay: Anxiolytic activity in DBA/2 mouse assessed as restoration of punished drinking behavior at 30 mg/kg, po relative to pregabalin; assay type: functional
[9] = Half life in rat plasma; assay type: ADME, organism-based
[10] = Plasma concentration in Sprague-Dawley rat at 30 mg/kg, po after 2 hrs; assay type: ADME, organism-based; design: dose 30 mg/kg, route oral
[11] = AUC in rat; assay type: ADME, organism-based; details: plasma
Rattus norvegicus [12] = assay: Reduction in renal clearance in Wistar rat at 3 mg/kg, iv after 5 mins in presence of cimetidine relative to control; assay type: ADME, organism-based; design: dose 3 mg/kg, route intravenous; details: in vivo
[13] = Volume of distribution at steady state in rat; assay type: ADME, organism-based; details: in vivo, read-out: Vdss
[14] = Drug level in Sprague-Dawley rat brain at 30 mg/kg, po after 2 hrs

Structure (SMILES): NCC1(Cc2nnn[nH]2)CCCCC1
- IC50 [1]: > 10000 µM
- IC50 [2]: 100 nM

Structure (SMILES): Cn1nnnc1CC1(CN)CCCCC1
- IC50 [2]: > 10000 nM

Structure (SMILES): NCC1(Cc2noc(=O)[nH]2)CCCCC1
- reduction in CL_renal (Rattus norvegicus [3]): 57%
- Activity (Mus musculus [4]): 20%
- clearance [5]: 20.3 mL/min/kg
- fraction unbound [6]: > 0.9
- bioavailability [7]: 97%
- IC50 [1]: > 10000 µM
- Activity (Mus musculus [8]): 11%
- half-life [9]: 96 min
- concentration at 2 h [10]: 15000 ng/mL
- AUC [11]: 2200 ng·h/mL
- reduction in CL_renal (Rattus norvegicus [12]): 35%
- Vd [13]: 1.25 L/kg

Structure (SMILES): NCC1(Cc2noc(=O)[nH]2)CCCCCC1
- IC50 [2]: 158 nM

Structure (SMILES): NCC1(Cc2noc(=O)[nH]2)CCCC1
- IC50 [2]: 1140 nM

Structure (SMILES): NCC1(Cc2noc(=O)[nH]2)CCCCCCC1
- IC50 [2]: 5600 nM

Structure (SMILES): C[C@@H]1CCC[C@@](CN)(Cc2noc(=O)[nH]2)C1
- IC50 [2]: 84 nM

Structure (SMILES): C[C@@H]1C[C@H](C)C[C@@](CN)(Cc2noc(=O)[nH]2)C1
- IC50 [2]: 70 nM

Structure (SMILES): C[C@@H]1C[C@H](C)C[C@](CN)(Cc2noc(=O)[nH]2)C1
- IC50 [2]: > 10000 nM

Structure (SMILES): Cn1c(CC2(CN)CCCCC2)noc1=O
- IC50 [2]: > 10000 nM

Structure (SMILES): CC(C)CC(CN)Cc1noc(=O)[nH]1 (racemic)
- IC50 [2]: 1500 nM

Structure (SMILES): NCC1(CC(=O)O)CCCCC1 [GABAPENTIN]
- Activity (Mus musculus [4]): 100%
- IC50 [1]: 30 µM
- Activity (Mus musculus [8]): 60%
- half-life [9]: 90 min
- IC50 [2]: 70 nM

Structure (SMILES): CC(C)C[C@H](CN)CC(=O)O [PREGABALIN]
- Activity (Mus musculus [4]): 100%
- clearance [5]: 2.9 mL/min/kg
- bioavailability [7]: 83%
- concentration at 2 h [14]: 7360 ng/mL
- IC50 [1]: 158 µM
- Activity (Mus musculus [8]): 100%
- half-life [9]: 162 min
- concentration at 2 h [10]: 25600 ng/mL
- AUC [11]: 14800 ng·h/mL
- Vd [13]: 0.79 L/kg

— ChEMBL document CHEMBL1139247 (Bioorg Med Chem Lett, 2009)
